Reference: paper PMC8765320, “Identification of a Proteasome-Targeting Arylsulfonamide with Potential for the Treatment of Chagas’ Disease” (Antimicrobial Agents and Chemotherapy, 2022)
Where two headings read alike, the source gives them in different places.

Legend:
[1] = test system: T. cruzi malic enzyme (cTcME); assay: Malic enzyme assay in clarified epimastigote lysates (NADPH production, 340 nm); type: biochemical, Trypanosoma cruzi
Description: Malic enzyme (ME) catalyzes the oxidative decarboxylation of malate to pyruvate with the concomitant reduction of NAD(P)^+ to NAD(P)H. In light of our TPP studies, we next sought to determine whether the binding of compound 1 to cTcME inhibits enzymatic activity. The ME-dependent production of NADPH was monitored in clarified lysates of T. cruzi epimastigotes at 340 nm after the addition of malate. In the first instance, this assay was validated using ATR-073, an established inhibitor of cTcME ([27]). […] Similarly, preincubation of lysates with 20 μM and 1 μM concentrations of compound 1 inhibited ME activity by 96 and 68%, respectively (Fig. 4C). […] It should be noted that ATR-073 and compound 1 are structurally similar, both being substituted N-phenyl aryl sulfonamides, this common moiety constituting the pharmacophore of this chemical series.
Logarithmic T. cruzi epimastigotes were harvested (1,690 × g, 10 min, 4°C), washed once in ice-cold phosphate-buffered saline, and resuspended at 2 × 10^9 cells ml^−1 in lysis buffer (10 mM phosphate buffer [pH 7.2], 10 mM EDTA, 5 mM benzamidine, 5 mM phenanthroline, 0.1 mM phenylmethylsulfonyl fluoride) containing 1 mg ml^−1 digitonin, followed by incubation at 28°C for 10 min. The resulting lysate was then centrifuged (13,000 × g, 10 min, 4°C), and the supernatant was harvested and stored on ice. The protein concentration of this clarified lysate was determined by using a standard Bio-Rad protein assay.
The activity of malic enzyme was assayed as previously described ([42]), with minor modifications. T. cruzi clarified lysate (30 μl) was added to a reaction mixture (500 μl final volume) containing 50 mM Tris-HCl buffer (pH 7.6), 1 mM MnCl2, and 0.12 mM NADP^+. Reactions were initiated by the addition of 5 mM L-malate. The reduction of NADP^+ was monitored at 340 nm using a UV-2401 spectrophotometer (Shimadzu). To monitor the effect of test compounds on the activity of malic enzyme, compounds (1 and 20 μM) were preincubated for 10 min with the lysate in the reaction mixture. DMSO (0.2%) was used as control. All enzymatic activities were calculated as Δabs min^−1 mg^−1 of protein.

T. cruzi epimastigotes = assay: T. cruzi epimastigote drug sensitivity assay (resazurin); type: cell-based, Trypanosoma cruzi; details: Trypanosoma cruzi
Method: To examine the effects of test compounds on the growth of T. cruzi epimastigotes, mid-log-phase parasites were seeded into 96-well plates at a cell density of 5 × 10^5 cells ml^−1. Cells were exposed to test compounds over a range of concentrations (2-fold serial dilutions). Cells were incubated for 4 days, and then 20 μl of 2.5 mM resazurin was added to each well, before measuring the fluorescence (excitation, 528 nm; emission, 590 nm), following a further 24 h of incubation. […] In this equation, [I] represents the inhibitor concentration, and m is the slope factor. Experiments were repeated at least two times, and the data are presented as means plus the standard deviations.

[2] = test system: chymotrypsin-like activity of the T. cruzi proteasome; assay: Proteasome chymotrypsin-like activity luminescence assay; type: biochemical, Trypanosoma cruzi; details: at concentrations up to and including 3.3 μM
Method: Initially, the impact of compound 1 on the chymotrypsin-like proteolytic activity of the proteasome was assessed using a commercially available indirect enzyme-based luminescent assay. In this assay, activity is monitored in proteasome-enriched T. cruzi epimastigote lysates using Suc-LLVY-aminoluciferin as a substrate ([16]). […] Thus, an alternative route to determine the impact of this arylsulfonamide compound on T. cruzi proteasome function was required.
The effect of inhibitors on the chymotrypsin-like activity of the T. cruzi proteasome was assessed by using a luminescence-based assay, as previously described ([21]).

## CCC(C)NC(=O)c1ccccc1NS(=O)(=O)c1ccc2ccccc2c1 (stereo not shown) [ATR-073]
[1]; preincubation of lysates with 1 μM
  reduction in ME activity: 63%
[1]; preincubation of lysates with 20 μM
  reduction in ME activity: 96%
T. cruzi epimastigotes; WT, Fig. S3B, one biological replicate
  EC50: 49 ± 29 µM
T. cruzi epimastigotes; compound 2-Res V cells (so in the source), Fig. S3B, one biological replicate, read-out: EC50
  EC50: 51 ± 18 µM
T. cruzi epimastigotes; epimastigotes, cell line Wild-type, weighted mean, n ≥ 3, read-out: ATR-073 EC50 values
  EC50: 34 ± 1 µM
T. cruzi epimastigotes; epimastigotes, cell line cTcME OE, weighted mean, n ≥ 3, read-out: ATR-073 EC50 values
  EC50: 32 ± 2 µM
[2]
  effect on the chymotrypsin-like activity of the proteasome: no effect
